Reference: patent EP0335369A2, “New anthracycline derivatives and processes for the preparation of the same” (priority 1988, dated 1989)
In brackets after ≈: the same amount, converted by molar mass. Where two headings read alike, the source gives them in different places.

Columns and labels:
Leukemia L-1210 cells [1] = test: Test 3: antitumor activity against leukemia induced in CDF1 mice by Leukemia L-1210 cells (procedure of Test 1 repeated); format: in vivo; conditions: intraperitoneally once per day for 9 consecutive days, observation 60 days
Description: Antitumor activities against leukemia in CDF1 mice as induced by mouse leukemia, Leukemia L-1210 cells
To evaluate the antitumor effects of the compounds of the formula (I') according to the sixth aspect of this invention against experimental tumors in animals, the procedure of Test 1 given hereinbefore is repeated. Thus, CDF1 mice were intraperitoneally transplanted with cells of Leukemia L-1210 (at a dose of 1 x 10^5 cells/mouse). After an elapsed time of 24 hours from the tumor transplantation, a test compound of the formula (I') of the sixth aspect invention to be evaluated was administered intraperitoneally for 9 consecutive days once per day. Observation was made for 60 day, where survival days of each mouse tested were recorded. In comparison with the control test wherein mice were treated with the administration of physiological saline alone, the increase (%) in the life-span of the treated mice was calculated as T/C %, where T is the mean survival days of the treated animals and C is the mean survival days of the untreated control animals. For the comparison, daunomycin and adriamycin were also tested in the same manner.

[2] = Solubility in phosphate buffer solution of pH 7.4 at room temperature; format: physicochemical; conditions: for solubility: room temperature
Leukemia L-1210 cells [3] = test: Test 1: antitumor activity against leukemia induced in CDF1 mice by Leukemia L-1210 cells (life-span increase); format: in vivo; conditions: intraperitoneally once per day for 9 consecutive days, observation 60 days
Description: Antitumor activities against leukemia in CDF, mice as induced by mouse leukemia, Leukemia L-1210 cells
After an elapsed time of 24 hours, a compounds of the formula (I) of this invention to be tested was administered intraperitoneally for 9 consecutive days once per day. Observation was made for 60 days, where survival days of each mouse tested were recorded. In comparison with the control test wherein mice were treated with the administration of physiological saline alone, the increase (%) in the life-span of the treated mice was calculated as T/C %, where T is the mean survival days of the treated animals and C is the mean survival days of the untreated control animals. For the comparison, daunomycin and adriamycin were also tested in the same manner.

[4] = test system: mouse leukemia P 388/S (sensitive); test: Test 2: growth inhibition of cultured mouse leukemia cells, 72 hours incubation; format: cell-based; conditions: P 388/S cells
Description: (§1) 7-O-(2,6-Dideoxy-2-fluoro-«-L-mannopyranosyl)adriamycinone 14-O-hemipimelate, which is a compounds according to this invention, was then added at varying concentrations. The incubation of the cells was thereafter continued for 72 hours to measure the 50% inhibitory concentration (ICso, ng/m t) of the test compound against the growth of the tunmor cells.

P388/ADR (resistant) = test: as above; format: cell-based; conditions: P 388/ADR cells
Description: as §1

[5] = aqueous buffer, compounds (Ic), phosphate buffer solution of pH 7.4 (0.05 M KH2PO4-NaOH), read-out: Solubility
[6] = aqueous buffer, compounds (I'-c) or (I'-d), phosphate buffer solution of pH 7.4 (0.05M KH2PO4-NaOH), read-out: Solubility

## 4-demethoxy-7-O-(2,6-dideoxy-2-fluoro-α-L-talopyranosyl)adriamycinone 14-0-hemisuberate [Example 19]
Leukemia L-1210 cells [1]; Dose 0.04 mg/kg/day
  % Increase in life-span (T/C, %): 93%
Leukemia L-1210 cells [1]; Dose 0.08 mg/kg/day
  % Increase in life-span (T/C, %): 96%
Leukemia L-1210 cells [1]; Dose 0.15 mg/kg/day
  % Increase in life-span (T/C, %): 138%
Leukemia L-1210 cells [1]; Dose 0.3 mg/kg/day
  % Increase in life-span (T/C, %): 175%
Leukemia L-1210 cells [1]; Dose 0.6 mg/kg/day
  % Increase in life-span (T/C, %): 245%
Leukemia L-1210 cells [1]; Dose 1.25 mg/kg/day
  % Increase in life-span (T/C, %): 158%
[2]; compounds (I'-c) or (I'-d), phosphate buffer solution of pH 7.4 (0.05M KH2PO4-NaOH)
  solubility: <1 mg/mL
[2]; phosphate buffer solution (0.05 M KH2PO4-NaOH) at pH 7.4
  solubility in the phosphate buffer solution (in words): scarcely soluble

## C[C@@H]1O[C@@H](O[C@H]2C[C@](O)(C(=O)COC(=O)CCCCCC(=O)O)Cc3c(O)c4c(c(O)c32)C(=O)c2ccccc2C4=O)[C@H](F)[C@H](O)[C@H]1O [Example 11, 7-O-(2,6-dideoxy-2-fluoro-a-L-mannopyranosyl)-4-demethoxyadriamycinone 14-0-hemipimelate]
[2]; [5]
  solubility: < 1 mg/mL
Leukemia L-1210 cells [3]; Dose 0.15 mg/kg/day
  % Increase in life-span (T/C, %): 121%
Leukemia L-1210 cells [3]; Dose 0.3 mg/kg/day
  % Increase in life-span (T/C, %): >363%
Leukemia L-1210 cells [3]; Dose 0.6 mg/kg/day
  % Increase in life-span (T/C, %): 175%
Leukemia L-1210 cells [3]; Dose 1.25 mg/kg/day
  % Increase in life-span (T/C, %): 111%

## COc1cccc2c1C(=O)c1c(O)c3c(c(O)c1C2=O)C[C@@](O)(C(=O)COC(=O)CCCCCC(=O)O)C[C@@H]3O[C@@H]1O[C@@H](C)[C@@H](O)[C@@H](O)[C@H]1F [Referential compound, 7-O-(2,6-dideoxy-2-fluoro-«-L-talopyranosyl)-adriamycinone 14-0-hemipimelate, reference compound]
[4]
  IC50 (ng/mℓ) P 388/S: 3.3 ng/mL (≈ 4.68e-06 mM)
P388/ADR (resistant)
  IC50 (ng/mℓ) P 388/ADR: 485 ng/mL (≈ 0.000688 mM)

## COc1cccc2c1C(=O)c1c(O)c3c(c(O)c1C2=O)C[C@@](O)(C(=O)COC(=O)CCCCCC(=O)O)C[C@@H]3O[C@@H]1O[C@@H](C)[C@H](O)[C@@H](O)[C@H]1F [Example 9]
[4]; Mus musculus, P388/S, read-out: IC50 (ng/mℓ) P 388/S
  IC50: 0.3 ng/mL (≈ 4.26e-07 mM)
P388/ADR (resistant); Mus musculus, P388/ADR, read-out: IC50 (ng/mℓ) P 388/ADR
  IC50: 39.8 ng/mL (≈ 5.65e-05 mM)
[2]; [5]
  solubility: 32 mg/mL (≈ 45.4 mM)
Leukemia L-1210 cells [3]; Dose 0.15 mg/kg/day
  % Increase in life-span (T/C, %): 123%
Leukemia L-1210 cells [3]; Dose 0.3 mg/kg/day
  % Increase in life-span (T/C, %): 274%
Leukemia L-1210 cells [3]; Dose 0.6 mg/kg/day
  % Increase in life-span (T/C, %): >329%
Leukemia L-1210 cells [3]; Dose 1.25 mg/kg/day
  % Increase in life-span (T/C, %): >346%
Leukemia L-1210 cells [3]; Dose 2.5 mg/kg/day
  % Increase in life-span (T/C, %): >686%
Leukemia L-1210 cells [3]; Dose 5 mg/kg/day
  % Increase in life-span (T/C, %): >463%

## COc1cccc2c1C(=O)c1c(O)c3c(c(O)c1C2=O)C[C@@](O)(C(=O)COC(=O)CCCCC(=O)O)C[C@@H]3O[C@@H]1O[C@@H](C)[C@H](O)[C@@H](O)[C@H]1F [Example 8, 7-0-(2,6-dideoxy-2-fluoro-a-L-mannopyranosyl)adriamycinone 14-0-hemiadipate]
[2]; [5]
  solubility: 32 mg/mL (≈ 46.3 mM)

## C[C@@H]1O[C@@H](O[C@H]2C[C@](O)(C(=O)COC(=O)CCCCC(=O)O)Cc3c(O)c4c(c(O)c32)C(=O)c2ccccc2C4=O)[C@H](F)[C@H](O)[C@@H]1O [Example 17, 4-demethoxy-7-O-(2,6-dideoxy-2-fluoro-α-L-talopyranosyl)adriamycinone 14-0-hemiadipate]
Leukemia L-1210 cells [1]; Dose 0.04 mg/kg/day
  % Increase in life-span (T/C, %): 99%
Leukemia L-1210 cells [1]; Dose 0.08 mg/kg/day
  % Increase in life-span (T/C, %): 99%
Leukemia L-1210 cells [1]; Dose 0.15 mg/kg/day
  % Increase in life-span (T/C, %): 130%
Leukemia L-1210 cells [1]; Dose 0.3 mg/kg/day
  % Increase in life-span (T/C, %): 166%
Leukemia L-1210 cells [1]; Dose 0.6 mg/kg/day
  % Increase in life-span (T/C, %): 242%
Leukemia L-1210 cells [1]; Dose 1.25 mg/kg/day
  % Increase in life-span (T/C, %): > 296%
[2]; [6]
  solubility: 6 mg/mL (≈ 9.08 mM)

## COc1cccc2c1C(=O)c1c(O)c3c(c(O)c1C2=O)C[C@@](O)(C(=O)COC(=O)CCC(=O)O)C[C@@H]3O[C@@H]1O[C@@H](C)[C@H](O)[C@@H](O)[C@H]1F [Example 6, 7-O-(2,6-dideoxy-2-fluoro-α-L-mannopyranosyl)adriamycinone 14-0-hemisuccinate]
[2]; [5]
  solubility: 25 mg/mL (≈ 37.7 mM)

## COc1cccc2c1C(=O)c1c(O)c3c(c(O)c1C2=O)C[C@@](O)(C(=O)COC(=O)CCCC(=O)O)C[C@@H]3O[C@@H]1O[C@@H](C)[C@H](O)[C@@H](O)[C@H]1F [Example 7, 7-0-(2,6-dideoxy-2-fluoro-a-L-. mannopyranosyl)adriamycinone 14-0-hemiglutarate]
[2]; [5]
  solubility: 28 mg/mL (≈ 41.4 mM)

## CCCCC(=O)OCC(=O)[C@]1(O)Cc2c(O)c3c(c(O)c2[C@@H](O[C@@H]2O[C@@H](C)[C@@H](O)[C@@H](O)[C@H]2F)C1)C(=O)c1ccccc1C3=O [Example 14, 4-demothoxy-7-O-(2,6-dideoxy-2-fluoro-α-L-talopyranosyl)adriamycinone 14-0-valerate]
[2]; [6]
  solubility: < 1 mg/mL
